These results are taken from article PMC9265050, “Inhibition of RNA Binding in SND1 Increases the Levels of miR-1-3p and Sensitizes Cancer Cells to Navitoclax” (Cancers, 2022).

One data set addresses T1, SN1-SN2 (16-339) (Homo sapiens, UniProt Q7KZF4).
T1 construct: gene SND1; SN1-SN2 domain fragment, residues 16-339; N-terminal GST tag cut with TEV protease; E. coli Rosetta 2 (DE3)
T1 sequence (Q7KZF4 16-339): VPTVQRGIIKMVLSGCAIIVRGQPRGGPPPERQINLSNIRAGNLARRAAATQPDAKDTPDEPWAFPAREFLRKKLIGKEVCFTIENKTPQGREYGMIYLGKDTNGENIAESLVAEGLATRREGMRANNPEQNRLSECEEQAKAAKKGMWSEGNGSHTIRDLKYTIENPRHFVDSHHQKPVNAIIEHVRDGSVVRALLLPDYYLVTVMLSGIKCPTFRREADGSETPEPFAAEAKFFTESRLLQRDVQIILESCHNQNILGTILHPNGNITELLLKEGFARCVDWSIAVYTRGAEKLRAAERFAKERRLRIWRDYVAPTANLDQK
The data set can be described thus: isothermal titration calorimetry, one-site model. Format: binding. The text has this: isothermal titration calorimetry, one-site model on SN1-SN2 (16-339)
A general note: In ITC the heat of successive injections is recorded.

The next data set deals with T2, SN3-SN4-TSN (340-888) (Homo sapiens, UniProt Q7KZF4).
T2 construct: gene SND1; SN3-SN4-TSN domain fragment, residues 340-888; N-terminal GST tag cut with TEV protease; E. coli Rosetta 2 (DE3)
T2 sequence (Q7KZF4 340-888): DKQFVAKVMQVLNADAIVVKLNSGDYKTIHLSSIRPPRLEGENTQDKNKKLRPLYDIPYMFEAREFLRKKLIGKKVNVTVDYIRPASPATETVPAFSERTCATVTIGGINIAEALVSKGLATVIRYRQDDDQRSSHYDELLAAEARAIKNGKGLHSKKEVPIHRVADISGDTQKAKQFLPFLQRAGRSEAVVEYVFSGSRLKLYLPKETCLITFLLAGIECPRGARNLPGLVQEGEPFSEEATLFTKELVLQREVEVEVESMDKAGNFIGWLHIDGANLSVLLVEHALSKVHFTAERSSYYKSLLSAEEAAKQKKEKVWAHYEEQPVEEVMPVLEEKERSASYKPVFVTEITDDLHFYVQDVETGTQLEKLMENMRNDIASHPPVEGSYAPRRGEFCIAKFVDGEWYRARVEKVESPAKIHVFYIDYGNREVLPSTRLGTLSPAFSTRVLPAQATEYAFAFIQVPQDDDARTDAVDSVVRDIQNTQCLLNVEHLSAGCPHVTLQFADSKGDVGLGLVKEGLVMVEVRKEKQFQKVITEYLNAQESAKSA
Description: isothermal titration calorimetry, one-site model. It is filed as binding. The text has this: isothermal titration calorimetry, one-site model on SN3-SN4-TSN (340-888)

Another data set addresses SND1 full-length (UniProt Q7KZF4 1-910). The data set can be described thus: fluorescence polarization; high affinity, Kd only in figure; inhibited by suramin, not by navitoclax; FP: 20 mM HEPES pH 7.5, 100 mM NaCl, 3 nM labelled RNA, 25 C; EMSA: same buffer with 5 mM EGTA or 5 mM CaCl2, room temperature 1 or 4 h, 20% PAGE 1xTBE 4 C. The following applies: protein: recombinant; tags: GST tag removed by TEV; label: 5' 6-FAM; single strand. (Fluorescence polarisation rises when a labelled molecule tumbles more slowly, as on binding a larger partner.)

SND1 full-length, sequence (Q7KZF4 whole entry): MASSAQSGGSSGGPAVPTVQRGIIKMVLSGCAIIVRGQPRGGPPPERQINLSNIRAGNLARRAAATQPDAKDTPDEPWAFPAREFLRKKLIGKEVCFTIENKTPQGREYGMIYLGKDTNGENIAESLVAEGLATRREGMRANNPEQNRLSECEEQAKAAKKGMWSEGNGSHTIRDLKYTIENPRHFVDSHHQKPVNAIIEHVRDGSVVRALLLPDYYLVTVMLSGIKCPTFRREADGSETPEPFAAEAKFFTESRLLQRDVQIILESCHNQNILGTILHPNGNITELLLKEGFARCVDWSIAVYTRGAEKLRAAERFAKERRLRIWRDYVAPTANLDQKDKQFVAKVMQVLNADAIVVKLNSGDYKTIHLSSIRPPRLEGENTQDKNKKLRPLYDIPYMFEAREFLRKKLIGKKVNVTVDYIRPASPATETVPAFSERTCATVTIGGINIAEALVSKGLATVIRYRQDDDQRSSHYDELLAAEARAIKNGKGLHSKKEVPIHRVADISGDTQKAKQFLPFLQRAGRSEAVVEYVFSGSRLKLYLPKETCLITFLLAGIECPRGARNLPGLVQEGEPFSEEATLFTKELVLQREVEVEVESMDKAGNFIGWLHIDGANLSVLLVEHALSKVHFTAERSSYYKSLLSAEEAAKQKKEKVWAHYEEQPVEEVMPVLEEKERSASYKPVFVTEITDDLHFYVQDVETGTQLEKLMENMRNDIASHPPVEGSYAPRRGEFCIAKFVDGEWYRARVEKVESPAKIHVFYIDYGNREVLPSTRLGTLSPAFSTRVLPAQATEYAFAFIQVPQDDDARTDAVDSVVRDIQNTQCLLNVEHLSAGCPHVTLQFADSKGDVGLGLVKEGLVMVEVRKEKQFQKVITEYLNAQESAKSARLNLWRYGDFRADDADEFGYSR

As usually defined, the Kd is the free concentration of one partner at which half of the binding sites on the other are occupied at equilibrium, for simple one-to-one binding. The low end stands for tighter binding, the high end for weaker binding. In the case of `Cc1ccc(C(=O)Nc2ccc(S(=O)(=O)O)c3cc(S(=O)(=O)O)cc(S(=O)(=O)O)c23)cc1NC(=O)c1cccc(NC(=O)Nc2cccc(C(=O)Nc3cc(C(=O)Nc4ccc(S(=O)(=O)O)c5cc(S(=O)(=O)O)cc(S(=O)(=O)O)c45)ccc3C)c2)c1` [Suramin], the Kd at SN1-SN2 (16-339) was 12.1 µM; on SN3-SN4-TSN (340-888) it was 5.59 µM.

B1: miR-1-3p FP tracer (ssRNA)
RNA: UGGAAUGUAAAGAAGUAUGUAU
B1: the binding result with SND1 full-length was “binds”.
